# pKi: −log10 of the molar value. “And” between values parts separate entries of the source, which are not always exact repeats. Equal entries are not always repeated.
# How the values were obtained:
# [1] = tested on: Human immunodeficiency virus 1; experiment: Antiviral potency was assessed by measuring the effect on accumulation of viral RNA transcripts 3 days after infection of MT-2 cells with HIV-1 RF; type: functional, MT2
# [2] = target: Human immunodeficiency virus type 1 protease (Human immunodeficiency virus 1) (UniProt Q72874); experiment: Ability to increase whole-cell antiviral efficacy through better translation defined as the ratio between IC90 and Ki; type: functional
# [3] = target: Human immunodeficiency virus type 1 protease (Human immunodeficiency virus 1, UniProt Q72874); experiment: Inhibitory activity against HIV protease
# [4] = Human immunodeficiency virus 1, MT2, 72 h
Compound,"IC90 [1, 4] [nM]",Ratio [2],pKi [3],IC90 [1] [nM]
O=C1N(CC2CC2)[C@H](Cc2cccs2)[C@H](O)[C@@H](O)[C@@H](Cc2cccs2)N1CC1CC1,7800,860,8.04,–
O=C1N(CC2CC2)[C@H](Cc2ccccc2)[C@H](O)[C@@H](O)[C@@H](Cc2ccccc2)N1CC1CC1,1840,970,8.72,–
O=C1N(Cc2ccc(CO)cc2)[C@H](Cc2ccccc2)[C@H](O)[C@@H](O)[C@@H](Cc2ccccc2)N1Cc1ccc(CO)cc1 [DMP-323],136,500,9.57,–
O=C1N(Cc2ccccc2)[C@H](Cc2ccoc2)[C@H](O)[C@@H](O)[C@@H](Cc2ccoc2)N1Cc1ccccc1,7800,920,8.08,–
CSc1ccc(C[C@@H]2[C@H](O)[C@@H](O)[C@@H](Cc3ccc(SC)cc3)N(Cc3ccccc3)C(=O)N2Cc2ccccc2)cc1,1300,380,8.47,–
O=C1N(Cc2ccccc2)[C@H](Cc2ccncc2)[C@H](O)[C@@H](O)[C@@H](Cc2ccncc2)N1Cc1ccccc1,5700,–,7.66,–
COc1ccc(C[C@@H]2[C@H](O)[C@@H](O)[C@@H](Cc3ccc(OC)cc3)N(CC3CC3)C(=O)N2CC2CC2)cc1,320,110,8.54,–
CSCC[C@@H]1[C@H](O)[C@@H](O)[C@@H](CCSC)N(Cc2ccc(CO)cc2)C(=O)N1Cc1ccc(CO)cc1,> 10000,–,5.41,–
CN(C)c1ccc(C[C@@H]2[C@H](O)[C@@H](O)[C@@H](Cc3ccc(N(C)C)cc3)N(Cc3ccccc3)C(=O)N2Cc2ccccc2)cc1,2700,60,7.34,–
Nc1cccc(C[C@@H]2[C@H](O)[C@@H](O)[C@@H](Cc3cccc(N)c3)N(Cc3ccccc3)C(=O)N2Cc2ccccc2)c1,1300,460,8.55,–
O=C1N(Cc2ccc(CO)cc2)[C@H](Cc2ccncc2)[C@H](O)[C@@H](O)[C@@H](Cc2ccncc2)N1Cc1ccc(CO)cc1,> 10000,–,8.32,–
O=C1N(Cc2ccc(CO)cc2)[C@H](Cc2ccc(F)c(F)c2)[C@H](O)[C@@H](O)[C@@H](Cc2ccc(F)c(F)c2)N1Cc1ccc(CO)cc1,36,76,9.33,–
O=C1N(Cc2ccccc2)[C@H](Cc2ccccc2O)[C@H](O)[C@@H](O)[C@@H](Cc2ccccc2O)N1Cc1ccccc1,6500,185,7.46,–
O=C1N(Cc2ccccc2)[C@H](Cc2ccc3c(c2)OCO3)[C@H](O)[C@@H](O)[C@@H](Cc2ccc3c(c2)OCO3)N1Cc1ccccc1,500,385,8.89,–
Nc1ccc(C[C@@H]2[C@H](O)[C@@H](O)[C@@H](Cc3ccc(N)cc3)N(Cc3ccccc3)C(=O)N2Cc2ccccc2)cc1 [listing 1 of 3 here],–,165 and 180,–,–
COc1ccc(C[C@@H]2[C@H](O)[C@@H](O)[C@@H](Cc3ccc(OC)cc3)N(Cc3ccc(CO)cc3)C(=O)N2Cc2ccc(CO)cc2)cc1,56,230,9.62,–
CSCC[C@@H]1[C@H](O)[C@@H](O)[C@@H](CCSC)N(CC2CC2)C(=O)N1CC1CC1,> 10000,–,–,–
O=C1N(Cc2ccccc2)[C@H](Cc2ccc3ccccc3c2)[C@H](O)[C@@H](O)[C@@H](Cc2ccc3ccccc3c2)N1Cc1ccccc1,3300,340,8.01,–
Nc1ccc(C[C@@H]2[C@H](O)[C@@H](O)[C@@H](Cc3ccc(N)cc3)N(Cc3ccccc3)C(=O)N2Cc2ccccc2)cc1 [listing 2 of 3 here],–,–,8.15,1300
O=C1N(Cc2ccccc2)[C@H](CC2CCCCC2)[C@H](O)[C@@H](O)[C@@H](CC2CCCCC2)N1Cc1ccccc1,> 10000,–,7.55,–
CSCC[C@@H]1[C@H](O)[C@@H](O)[C@@H](CCSC)N(Cc2ccccc2)C(=O)N1Cc1ccccc1,> 10000,–,5.96,–
COc1cccc(C[C@@H]2[C@H](O)[C@@H](O)[C@@H](Cc3cccc(OC)c3)N(Cc3ccc(CO)cc3)C(=O)N2Cc2ccc(CO)cc2)c1,37,340,9.96,–
O=C1N(CC2CC2)[C@H](Cc2ccc3ccccc3c2)[C@H](O)[C@@H](O)[C@@H](Cc2ccc3ccccc3c2)N1CC1CC1,3400,790,8.37,–
CC(C)C[C@@H]1[C@H](O)[C@@H](O)[C@@H](CC(C)C)N(Cc2ccc(CO)cc2)C(=O)N1Cc1ccc(CO)cc1,> 10000,–,7.42,–

Compound,"IC90 [1, 4] [nM]",Ratio [2],pKi [3],IC90 [1] [nM]
COc1ccccc1C[C@@H]1[C@H](O)[C@@H](O)[C@@H](Cc2ccccc2OC)N(Cc2ccccc2)C(=O)N1Cc1ccccc1,8800,150,7.22,–
O=C1N(Cc2ccccc2)[C@H](CCc2ccccc2)[C@H](O)[C@@H](O)[C@@H](CCc2ccccc2)N1Cc1ccccc1,> 10000,–,6.49,–
CC(C)C[C@@H]1[C@H](O)[C@@H](O)[C@@H](CC(C)C)N(Cc2ccccc2)C(=O)N1Cc1ccccc1,> 10000,–,5.77,–
Nc1ccc(C[C@@H]2[C@H](O)[C@@H](O)[C@@H](Cc3ccc(N)cc3)N(Cc3ccccc3)C(=O)N2Cc2ccccc2)cc1 [listing 3 of 3 here],1400,–,8.07,–
COc1ccccc1C[C@@H]1[C@H](O)[C@@H](O)[C@@H](Cc2ccccc2OC)N(CC2CC2)C(=O)N1CC1CC1,> 10000,–,7.19,–
COc1cc(C[C@@H]2[C@H](O)[C@@H](O)[C@@H](Cc3cc(OC)cc(OC)c3)N(CC3CC3)C(=O)N2CC2CC2)cc(OC)c1,380,140,8.57,–
O=C1N(CC2CC2)[C@H](Cc2cccc(O)c2)[C@H](O)[C@@H](O)[C@@H](Cc2cccc(O)c2)N1CC1CC1,2570,200,7.89,–
C[C@@H]1[C@H](O)[C@@H](O)[C@@H](C)N(Cc2ccccc2)C(=O)N1Cc1ccccc1,> 10000,–,5.30,–
CC(C)c1ccc(C[C@@H]2[C@H](O)[C@@H](O)[C@@H](Cc3ccc(C(C)C)cc3)N(Cc3ccccc3)C(=O)N2Cc2ccccc2)cc1,> 10000,–,8.96,–
COc1ccc(C[C@@H]2[C@H](O)[C@@H](O)[C@@H](Cc3ccc(OC)cc3)N(Cc3ccccc3)C(=O)N2Cc2ccccc2)cc1,600,70,8.07,–
CC(C)C[C@@H]1[C@H](O)[C@@H](O)[C@@H](CC(C)C)N(CC2CC2)C(=O)N1CC1CC1,> 10000,–,7.07,–
O=C1N(Cc2ccccc2)[C@H](Cc2ccc(O)cc2)[C@H](O)[C@@H](O)[C@@H](Cc2ccc(O)cc2)N1Cc1ccccc1,185,170,8.96,–
COc1cccc(C[C@@H]2[C@H](O)[C@@H](O)[C@@H](Cc3cccc(OC)c3)N(Cc3ccccc3)C(=O)N2Cc2ccccc2)c1,350,75,8.33,–
CSc1cccc(C[C@@H]2[C@H](O)[C@@H](O)[C@@H](Cc3cccc(SC)c3)N(Cc3ccccc3)C(=O)N2Cc2ccccc2)c1,4170,1700,8.60,–
CS(=O)(=O)c1ccc(C[C@@H]2[C@H](O)[C@@H](O)[C@@H](Cc3ccc(S(C)(=O)=O)cc3)N(Cc3ccccc3)C(=O)N2Cc2ccccc2)cc1,470,190,8.60,–
O=C1N(CC2CC2)[C@H](Cc2ccc(F)cc2)[C@H](O)[C@@H](O)[C@@H](Cc2ccc(F)cc2)N1CC1CC1,3200,550,8.24,–
O=C1N(Cc2ccc(CO)cc2)[C@H](Cc2ccc(F)cc2)[C@H](O)[C@@H](O)[C@@H](Cc2ccc(F)cc2)N1Cc1ccc(CO)cc1,100,230,9.36,–
O=C1N(Cc2ccccc2)[C@H](Cc2c[nH]c3ccccc23)[C@H](O)[C@@H](O)[C@@H](Cc2c[nH]c3ccccc23)N1Cc1ccccc1,> 10000,–,6.24,–
COc1cccc(C[C@@H]2[C@H](O)[C@@H](O)[C@@H](Cc3cccc(OC)c3)N(CC3CC3)C(=O)N2CC2CC2)c1,650,750,9.06,–
Cc1ccc(C)n1-c1cccc(C[C@@H]2[C@H](O)[C@@H](O)[C@@H](Cc3cccc(-n4c(C)ccc4C)c3)N(Cc3ccccc3)C(=O)N2Cc2ccccc2)c1,> 10000,–,6.80,–
O=C1N(Cc2ccccc2)[C@H](Cc2ccccc2)[C@H](O)[C@@H](O)[C@@H](Cc2ccccc2)N1Cc1ccccc1,790,230,8.47,–
CN(C)c1cccc(C[C@@H]2[C@H](O)[C@@H](O)[C@@H](Cc3cccc(N(C)C)c3)N(Cc3ccccc3)C(=O)N2Cc2ccccc2)c1,1200,280,8.37,–
O=C1N(Cc2ccc(CO)cc2)[C@H](CC2CCCCC2)[C@H](O)[C@@H](O)[C@@H](CC2CCCCC2)N1Cc1ccc(CO)cc1,> 10000,–,7.49,–
CC(C)[C@@H]1[C@H](O)[C@@H](O)[C@@H](C(C)C)N(CC2CC2)C(=O)N1CC1CC1,> 10000,–,–,–

# Reference: ChEMBL document CHEMBL1129785, “Preparation and structure-activity relationship of novel P1/P1'-substituted cyclic urea-based human immunodeficiency virus type-1 protease inhibitors” (J Med Chem, 1996)
